Laboratory results from patent publication US9302967B2, “Substituted cathechols as inhibitors of IL-4 and IL-5 for the treatment of bronchial asthma” (Council of Scientific & Industrial Research, priority 2011, dated 2016).
Where two headings read alike, the source gives them in different places.

Tests used:
hepatocarcinoma cells = details: cited from earlier work
lung inflammation = assay: Histological analysis of lung inflammation (H&E), OVA mouse model; type: in vivo, BALB/c mice
Method: (§1) Mice were sensitized with 0.2 ml PBS containing 50 μg ovalbumin (OVA) (Sigma, USA) and 4 mg aluminum hydroxide in saline intraperitonially (i.p.) on days 0, 7 and 14 as shown in FIG. 1. Sham group mice were sensitized with only alum dissolved in PBS. From day 18 to 27, mice were exposed to aerosol of OVA (3%) inhalation 25 minutes daily in a Plexiglas chamber (20×20×10 cm^3). The aerosol was generated by a nebulizer (OMRON CX model) with an airflow rate of 9 L/minute. Sham group mice were challenged with PBS alone.
(§2) Compound 1 of formula I was dissolved in 50% ethanol. So 50% ethanol was used as a vehicle. Group I was alum sensitized, saline challenged and treated with vehicle (SHAM/SAL/VEH), group II was OVA sensitized, OVA challenged and treated with 50% ethanol as vehicle (OVA/OVA/VEH), group III, IV, V, VI were OVA sensitized, OVA challenged and treated with 0.05, 0.1, 5 and 10 mg/kg compound 1 of formula I. Drug was given in the volume of 10 μl orally twice per day. Confirmatory experiments were done with two concentrations of compound 1 of formula I (5 and 10 mg/kg twice a day), and these findings were compared with parallel group of mice which were OVA-sensitized, -OVA challenged and treated orally once a day with 0.75 mg/kg Dexamethasone (OVA/OVA/DEX).
The excised lung portion was fixed in 10% buffered formalin. […]

[1] = tested on: OVA sensitized, OVA challenged mice; assay: Airway hyperresponsiveness to methacholine (whole-body plethysmography), OVA mouse model of asthma; type: in vivo, BALB/c mice; details: for AHR to Mch / lung function compared with dexamethasone: 10 mg/kg orally twice a day, DEX 0.75 mg/kg once a day; for MCh PC200 (AHR to methacholine): 0.05, 0.1, 5 and 10 mg/kg orally twice per day
Method: BALB/c mice (6-8 wks old, 18-22 grams) were obtained from IICB Kolkata and VPCI, Delhi. Ethical clearance has been obtained from Institutional Ethical Committee. Mice were acclimatized for at least one week under the laboratory conditions (25±2° C., 60% humidity) before starting the experiments. After one week, baseline Penh (enhanced pause) was measured in Buxco unrestrained single chamber plethysmography (WBP, Buxco, Troy, N.Y.).
as §1, §2
Airway responsiveness was measured by barometric plethysmography using whole-body plethysmography (WBP; Buxco, Troy, N.Y.) 12 hours after last saline or ovalbumin challenge. At the time of measurement the animals were awake and breathing spontaneously. Enhanced pause (Penh) to methacholine as measured using barometric plethysmography is a valid indicator of bronchoconstriction in mice and can be used to measure AHR (Am J Respir Crit Care Med 1997, 156, 766-775). Baseline Penh was taken initially, and then PBS followed by increasing concentrations (4-48 mg/ml) of methacholine was nebulized through an inlet of the main chamber for 3 min. Readings were taken and averaged for 5 minutes from the starting time of nebulisation. Airway responsiveness to MCh was evaluated by the concentration of MCh required to increase the Penh to twice the baseline value (MCh PC200).

[2] = mouse, in vivo
Method: (§3) Earlier, LD50 of ICB 14 C6 was derived from in vitro cytotoxicity assay by NRUmethod in 3T3 cells. […] For 90d sub-chronic toxicity study the highest dose selected was one-fourth of the limit dose. Four different doses of ICB14 C6 (47, 23, 12 and 0 [vehicle] mg/kg body weight) were prepared in ground nut oil daily for 5 days a week for 90d.
Compound 1 of formula I was administered by oral gavage in water using blunt ended steel canula.
On each working day, all mice were inspected and observations recorded. All the mice were weighed weekly.
From the day of administering the drug, 30 min cage side observation of the animals were performed every day (5 days a week) till the day of sacrifice. No signs and symptoms of restlessness, perinasal wetness and rapid rate of respiration were observed post administration. […] On the 12th week we found the mouse in a shrunken state as it was kept in the deep freezer.

[3] = 14 d acute oral toxicity: observations, body weight, organ weight, necropsy; type: in vivo, mice
Method: 14 d acute oral toxicity of compound 1 of formula I was performed. Three doses were selected: 47, 23, 12 and 0 mg/kg bw (Vehicle control) of compound 1 of formula I was administered by single oral gavage using blunt ended steel canula.

[4] = mouse, in vivo; remark: listed apart in the source
Method: as §3
After 90d of oral treatment with ICB3001, 3 mice in each group were sacrificed and major organs were placed in 10% formalin to prepare histological slides. The slides were stained by haematoxylin-eosin dye.

[5] = tested on: oral KB carcinoma cell line; details: cited from earlier work
IL-4 = assay: PHA-stimulated human PBMC, IL-4 in supernatant by Cytometric Bead Array; type: cell-based; details: PHA 10 μg/ml, read-out: IC50 inhibitory activity, stimulation-induced IL-4
Method: Normal human peripheral blood mononuclear cells (PBMC) were stimulated with phytohemagglutinin (PHA) 10 μg/ml in the presence and absence of varying concentrations of compounds of formula I and II. Culture supernatants were harvested and IIL-4 and IL-5 cytokines were quantitated by Cytometric Bead Array (CBA™) kit (Becton Dickinson, USA) following manufacturers instructions using a Flow Cytometer (BD LSR, Becton Dickinson) and CBA™ analysis software (Becton Dickinson).

[6] = listed as compound of formula I

In the case of `C=CCc1ccc(O)c(O)c1` [Compound 1, 4-allyl-benzene-1,2-diol], the “cell cycle arrest and apoptosis” value (hepatocarcinoma cells) is given as “induce cell cycle arrest and apoptosis”, the “lung inflammation (H&E)” value (lung inflammation; 5 mg/kg) is given as “mild reduction of inflammation” and the “lung inflammation (H&E)” value (lung inflammation; 10 mg/kg) is given as “a significant reduction in both peribronchial and perivascular inflammation”. The “AHR to Mch / lung function compared with dexamethasone” value [1] was “able to improve lung function almost similar to the level of dexamethasone”, the “AHR to Mch / lung function compared with dexamethasone” value [1, 6] was “significantly reduced the AHR to Mch as effective as DEX” and the “MCh PC200 (AHR to methacholine)” value [1] was “increased in a dose dependent manner”. For the same molecule, the “MCh PC200 (AHR to methacholine)” value [1, 6] was “effective at higher concentrations”, the cage side observation [2] was “All the animals appeared normal” and the “feed and water consumption” value [2] was “comparable to sham controls”. For the same molecule, the “necropsy findings in vital organs” value [2] was “no gross or microscopic lesion”, the mortality ([2]; 47 mg/kg, 90 d) was “on the 11th weekend it died” and the “acute oral (level) established from body weight, organ weight, necropsy, immunotoxicity, hematology, clinical chemistry, cage side observation” value ([3]; mice) was 23 mg/kg. For the same molecule, the “necropsy findings in vital organs” value ([3]; mouse, in vivo) was “no gross or microscopic lesion”, the “clinical signs on day of administration” value ([3]; mouse, in vivo, po) was “transient symptoms of restlessness and rapid rate of respiration that persisted for 30 minutes post administration” and the “feed and water consumption” value ([3]; mouse, in vivo, po) was “comparable to vehicle control group”. For the same molecule, the morbidity and/or mortality ([3]; single oral 47, 23 and 12 mg/kg bw) was “did not result in any morbidity and/or mortality”, the heart histology [4] was “no significant changes in the histo-architecture” and the kidney histology [4] was “no significant changes were observed”. The liver histology [4] was “no change in the structure of hepatic cells”, the lung histology ([4]; 47 mg/kg) was “slight thickening of intercellular septum and migration of polymorphonuclear lymphocytes” and the “cell cycle arrest and apoptosis” value [5] was “induce cell cycle arrest and apoptosis”. For the same molecule, the IC50 (IL-4) was 5 µM.
